Experiments:
DDR1 = DDR1 (Homo sapiens (Human), UniProt Q08345); assay: DDR1 LanthaScreen Europium Kinase Binding assay; settings: binding; 5 nM DDR1, 20 nM Kinase Tracer 178, 1 hour at rt; Ki from IC50 by Cheng-Prusoff; read-out: Ki DDR1
Experimental: (§1) DDR1 and DDR2 binding assays were performed using Life Technologies LanthaScreen™ Europium Kinase Binding assay. The compounds were incubated with 5 nM DDR1 (Carna Biosciences) or 5 nM DDR2 (Life Technologies) for 1 hour at rt in white 384-well OptiPlate (PerkinElmer), containing 20 nM or 10 nM Kinase Tracer 178 respectively and 2 nM Europium labelled anti-GST antibody (Life Technologies) in assay buffer (50 mM HEPES pH 7.5, 10 mM MgCI2, 1 mM EGTA and 0.01% BRIJ35). The ratio of fluorescence emission 665 nm/615 nm after excitation at 340 nm was obtained using the Tecan Spark 20M plate reader. IC50 values were determined in GraphPad Prism 7.0 software, using 4 parameter model: log(inhibitor) vs. response. IC50 values were converted in Ki using the Cheng-Prusoff equation (Ki=IC50/(1+[Tracer]/Kd).
(§2) Compounds C1 and C2 were tested in the same binding assay described above.

DDR2 = DDR2 (Homo sapiens (Human), UniProt Q16832); assay: DDR2 LanthaScreen Europium Kinase Binding assay; settings: binding; 5 nM DDR2, 10 nM Kinase Tracer 178, 1 hour at rt; Ki from IC50 by Cheng-Prusoff; read-out: Ki DDR2
Experimental: as §1, §2

Sequence of DDR1 (Q08345 19-913): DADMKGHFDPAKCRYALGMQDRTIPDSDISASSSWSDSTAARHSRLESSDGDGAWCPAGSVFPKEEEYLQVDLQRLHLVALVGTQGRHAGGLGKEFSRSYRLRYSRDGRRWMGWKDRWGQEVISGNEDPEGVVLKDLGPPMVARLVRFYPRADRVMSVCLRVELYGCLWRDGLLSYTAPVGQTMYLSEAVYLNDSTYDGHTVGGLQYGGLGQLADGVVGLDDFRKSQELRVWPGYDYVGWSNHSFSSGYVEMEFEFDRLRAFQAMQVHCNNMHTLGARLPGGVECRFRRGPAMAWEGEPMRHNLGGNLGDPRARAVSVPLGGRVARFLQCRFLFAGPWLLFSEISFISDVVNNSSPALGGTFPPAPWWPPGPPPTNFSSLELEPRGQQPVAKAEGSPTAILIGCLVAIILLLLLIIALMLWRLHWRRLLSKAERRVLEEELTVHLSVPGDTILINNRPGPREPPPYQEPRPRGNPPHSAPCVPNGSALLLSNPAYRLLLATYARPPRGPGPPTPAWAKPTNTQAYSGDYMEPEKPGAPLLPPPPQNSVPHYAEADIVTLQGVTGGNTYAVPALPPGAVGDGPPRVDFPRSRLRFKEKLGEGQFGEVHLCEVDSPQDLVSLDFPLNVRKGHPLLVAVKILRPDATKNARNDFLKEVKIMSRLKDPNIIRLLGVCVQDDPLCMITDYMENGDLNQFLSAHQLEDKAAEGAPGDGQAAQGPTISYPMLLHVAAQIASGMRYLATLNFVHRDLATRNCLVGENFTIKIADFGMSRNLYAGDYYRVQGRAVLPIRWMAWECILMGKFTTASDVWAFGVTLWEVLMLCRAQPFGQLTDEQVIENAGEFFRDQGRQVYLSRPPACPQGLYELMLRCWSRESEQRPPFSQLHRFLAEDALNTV
Sequence of DDR2 (Q16832 22-855): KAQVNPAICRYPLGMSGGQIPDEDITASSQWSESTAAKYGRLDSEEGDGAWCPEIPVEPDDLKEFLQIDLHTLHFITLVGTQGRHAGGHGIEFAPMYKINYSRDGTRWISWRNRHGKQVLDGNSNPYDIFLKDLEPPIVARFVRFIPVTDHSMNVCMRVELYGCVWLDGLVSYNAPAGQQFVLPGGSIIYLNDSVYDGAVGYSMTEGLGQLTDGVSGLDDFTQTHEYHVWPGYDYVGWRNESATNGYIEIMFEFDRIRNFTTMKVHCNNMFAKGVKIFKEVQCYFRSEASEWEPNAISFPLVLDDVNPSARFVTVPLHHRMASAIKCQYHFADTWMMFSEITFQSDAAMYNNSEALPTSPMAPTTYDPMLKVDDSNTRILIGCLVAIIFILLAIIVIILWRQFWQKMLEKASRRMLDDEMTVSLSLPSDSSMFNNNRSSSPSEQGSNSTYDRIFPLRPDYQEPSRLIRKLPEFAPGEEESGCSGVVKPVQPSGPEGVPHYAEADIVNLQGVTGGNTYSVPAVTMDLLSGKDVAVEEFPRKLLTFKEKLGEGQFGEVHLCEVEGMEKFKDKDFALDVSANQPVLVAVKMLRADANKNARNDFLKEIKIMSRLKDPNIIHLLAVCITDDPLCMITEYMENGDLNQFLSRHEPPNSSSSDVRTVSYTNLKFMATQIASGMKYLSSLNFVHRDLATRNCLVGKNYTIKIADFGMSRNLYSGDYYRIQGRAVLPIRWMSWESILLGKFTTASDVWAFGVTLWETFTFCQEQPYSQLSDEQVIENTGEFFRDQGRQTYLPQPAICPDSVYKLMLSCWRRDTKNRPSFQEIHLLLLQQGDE

Structure (SMILES) | Ki (DDR1) | Ki (DDR2)
Cc1ccc(C(=O)Nc2cccc(C(F)(F)F)c2)cc1[C@@H]1CCN(c2cncnc2)C1 [Example 20, (S)-4-methyl-3-(1-(pyrimidin-5-yl)pyrrolidin-3-yl)-N-(3-(trifluoromethyl)phenyl)benzamide] | < 10 nM | < 10 nM
Cc1ccc(C(=O)Nc2cccc(C(F)(F)F)c2)cc1C1CCN(c2cncc(NCCN(C)C)c2)C1 (stereo not drawn) [Example 21, 3-(1-(5-((2-(dimethylamino)ethyl)amino)pyridin-3-yl)pyrrolidin-3-yl)-4-methyl-N-(3-(trifluoromethyl)phenyl)benzamide] | < 10 nM | 25 to 60 nM
Cc1ccc(C(=O)Nc2cccc(C(F)(F)F)c2)cc1C1CCN(c2cncc(NCCN3CCOCC3)c2)C1 (stereo not drawn) [Example 22, 4-methyl-3-(1-(5-((2-morpholinoethyl)amino)pyridin-3-yl)pyrrolidin-3-yl)-N-(3-(trifluoromethyl)phenyl)benzamide] | < 10 nM | 10 to 25 nM
Cc1ccc(C(=O)Nc2cccc(C(F)(F)F)c2)cc1C1CCN(c2cncc(OCCN(C)C)c2)C1 (stereo not drawn) [Example 23, 3-(1-(5-(2-(dimethylamino)ethoxy)pyridin-3-yl)pyrrolidin-3-yl)-4-methyl-N-(3-(trifluoromethyl)phenyl)benzamide] | < 10 nM | < 10 nM
Cc1ccc(C(=O)Nc2cccc(C(F)(F)F)c2)cc1C1CCN(c2ccnc(C#N)c2)C1 (stereo not drawn) [Example 24, 3-(1-(2-cyanopyridin-4-yl)pyrrolidin-3-yl)-4-methyl-N-(3-(trifluoromethyl)phenyl)benzamide] | 25 to 60 nM | > 60 nM
CNC(=O)c1cc(N2CC[C@@H](c3cc(C(=O)Nc4cccc(C(F)(F)F)c4)ccc3C)C2)ccn1 [Example 25, (S)-N-methyl-4-(3-(2-methyl-5-((3-(trifluoromethyl)phenyl)carbamoyl)phenyl)pyrrolidin-1-yl)picolinamide] | < 10 nM | < 10 nM
CNC(=O)c1cncc(N2CC[C@@H](c3cc(C(=O)Nc4cccc(C(F)(F)F)c4)ccc3C)C2)c1 [Example 26, (S)-N-methyl-5-(3-(2-methyl-5-((3-(trifluoromethyl)phenyl)carbamoyl)phenyl)pyrrolidin-1-yl)nicotinamide] | < 10 nM | < 10 nM
CNC(=O)c1cc(N2CC[C@H](c3cc(C(=O)Nc4cccc(C(F)(F)F)c4)ccc3C)C2)ccn1 [Example 27, (R)-N-methyl-4-(3-(2-methyl-5-((3-(trifluoromethyl)phenyl)carbamoyl)phenyl)pyrrolidin-1-yl)picolinamide] | < 10 nM | 25 to 60 nM
CNC(=O)c1cncc(N2CC[C@H](c3cc(C(=O)Nc4cccc(C(F)(F)F)c4)ccc3C)C2)c1 [Example 28, (R)-N-methyl-5-(3-(2-methyl-5-((3-(trifluoromethyl)phenyl)carbamoyl)phenyl)pyrrolidin-1-yl)nicotinamide] | < 10 nM | 10 to 25 nM
COCCOc1cncc(N2CC[C@@H](c3cc(C(=O)Nc4cccc(C(F)(F)F)c4)ccc3C)C2)c1 [Example 30, (S)-3-(1-(5-(2-methoxyethoxy)pyridin-3-yl)pyrrolidin-3-yl)-4-methyl-N-(3-(trifluoromethyl)phenyl)benzamide] | < 10 nM | 10 to 25 nM
Cc1ccc(C(=O)Nc2cccc(C(F)(F)F)c2)cc1[C@@H]1CCN(c2cncc(N3CCC(F)(F)CC3)c2)C1 [Example 31, (S)-3-(1-(5-(4,4-difluoropiperidin-1-yl)pyridin-3-yl)pyrrolidin-3-yl)-4-methyl-N-(3-(trifluoromethyl)phenyl)benzamide] | < 10 nM | > 60 nM
Cc1ccc(C(=O)Nc2cccc(C(F)(F)F)c2)cc1[C@@H]1CCN(c2cncc(C(=O)N3CCC(F)(F)CC3)c2)C1 [Example 32, (S)-3-(1-(5-(4,4-difluoropiperidine-1-carbonyl)pyridin-3-yl)pyrrolidin-3-yl)-4-methyl-N-(3-(trifluoromethyl)phenyl)benzamide] | 25 to 60 nM | > 60 nM
Cc1ccc(C(=O)Nc2cccc(C(F)(F)F)c2)cc1[C@@H]1CCN(c2cncc(C(=O)N3CCOCC3)c2)C1 [Example 33, (S)-4-methyl-3-(1-(5-(morpholine-4-carbonyl)pyridin-3-yl)pyrrolidin-3-yl)-N-(3-(trifluoromethyl)phenyl)benzamide] | < 10 nM | 10 to 25 nM
Cc1ccc(C(=O)Nc2cccc(C(F)(F)F)c2)cc1[C@@H]1CCN(c2cncc(C(=O)NCCN(C)C)c2)C1 [Example 34, (S)-N-(2-(dimethylamino)ethyl)-5-(3-(2-methyl-5-((3-(trifluoromethyl)phenyl)carbamoyl)phenyl)pyrrolidin-1-yl)nicotinamide] | < 10 nM | < 10 nM
COCCNC(=O)c1cncc(N2CC[C@@H](c3cc(C(=O)Nc4cccc(C(F)(F)F)c4)ccc3C)C2)c1 [Example 35, (S)-N-(2-methoxyethyl)-5-(3-(2-methyl-5-((3-(trifluoromethyl)phenyl)carbamoyl)phenyl)pyrrolidin-1-yl)nicotinamide] | < 10 nM | < 10 nM
CO[C@@H]1CCCN(c2cncc(N3CC[C@@H](c4cc(C(=O)Nc5cccc(C(F)(F)F)c5)ccc4C)C3)c2)C1 [Example 36, 3-((S)-1-(5-((R)-3-methoxypiperidin-1-yl)pyridin-3-yl)pyrrolidin-3-yl)-4-methyl-N-(3-(trifluoromethyl)phenyl)benzamide] | < 10 nM | 25 to 60 nM
Cc1ccc(C(=O)Nc2cccc(C(F)(F)F)c2)cc1[C@@H]1CCN(c2cncc(N3CC4(COC4)C3)c2)C1 [Example 37, (S)-3-(1-(5-(2-oxa-6-azaspiro[3.3]heptan-6-yl)pyridin-3-yl)pyrrolidin-3-yl)-4-methyl-N-(3-(trifluoromethyl)phenyl)benzamide] | < 10 nM | 10 to 25 nM
Cc1ccc(C(=O)Nc2cccc(C(F)(F)F)c2)cc1[C@@H]1CCN(c2cncc(C(F)F)c2)C1 [Example 38, (S)-3-(1-(5-(difluoromethyl)pyridin-3-yl)pyrrolidin-3-yl)-4-methyl-N-(3-(trifluoromethyl)phenyl)benzamide] | < 10 nM | 10 to 25 nM
Cc1ccc(C(=O)Nc2cccc(C(F)(F)F)c2)cc1[C@@H]1CCN(c2cncc(N3CCC4(COC4)C3)c2)C1 [Example 39, (S)-3-(1-(5-(2-oxa-6-azaspiro[3.4]octan-6-yl)pyridin-3-yl)pyrrolidin-3-yl)-4-methyl-N-(3-(trifluoromethyl)phenyl)benzamide] | 10 to 25 nM | > 60 nM
CC(=O)Nc1cncc(N2CC[C@@H](c3cc(C(=O)Nc4cccc(C(F)(F)F)c4)ccc3C)C2)c1 [Example 40, (S)-3-(1-(5-acetamidopyridin-3-yl)pyrrolidin-3-yl)-4-methyl-N-(3-(trifluoromethyl)phenyl)benzamide] | < 10 nM | < 10 nM
CC(=O)Nc1cc(N2CC[C@@H](c3cc(C(=O)Nc4cccc(C(F)(F)F)c4)ccc3C)C2)ccn1 [Example 41, (S)-3-(1-(2-acetamidopyridin-4-yl)pyrrolidin-3-yl)-4-methyl-N-(3-(trifluoromethyl)phenyl)benzamide] | < 10 nM | < 10 nM
Cc1ccc(C(=O)Nc2cccc(C(F)(F)F)c2)cc1[C@@H]1CCN(c2ccnc3[nH]ccc23)C1 [Example 42, (S)-3-(1-(1H-pyrrolo[2,3-b]pyridin-4-yl)pyrrolidin-3-yl)-4-methyl-N-(3-(trifluoromethyl)phenyl)benzamide] | 10 to 25 nM | 25 to 60 nM
Cc1ccc(C(=O)Nc2cccc(C(F)(F)F)c2)cc1[C@@H]1CCN(c2cnc3ccnn3c2)C1 [Example 43, (S)-4-methyl-3-(1-(pyrazolo[1,5-a]pyrimidin-6-yl)pyrrolidin-3-yl)-N-(3-(trifluoromethyl)phenyl)benzamide] | 25 to 60 nM | 25 to 60 nM
Cc1ccc(C(=O)Nc2cccc(C(F)(F)F)c2)cc1[C@@H]1CCN(c2ccc(Nc3cnn(C)c3)nc2)C1 [Example 44, (S)-4-methyl-3-(1-(6-((1-methyl-1H-pyrazol-4-yl)amino)pyridin-3-yl)pyrrolidin-3-yl)-N-(3-(trifluoromethyl)phenyl)benzamide] | 10 to 25 nM | 25 to 60 nM
Cc1ccc(C(=O)Nc2cccc(C(F)(F)F)c2)cc1[C@@H]1CCN(c2cncc(Nc3cnn(C)c3)c2)C1 [Example 45, (S)-4-methyl-3-(1-(5-((1-methyl-1H-pyrazol-4-yl)amino)pyridin-3-yl)pyrrolidin-3-yl)-N-(3-(trifluoromethyl)phenyl)benzamide] | < 10 nM | 10 to 25 nM
COCCn1cc(Nc2cncc(N3CC[C@@H](c4cc(C(=O)Nc5cccc(C(F)(F)F)c5)ccc4C)C3)c2)cn1 [Example 46, (S)-3-(1-(5-((1-(2-methoxyethyl)-1H-pyrazol-4-yl)amino)pyridin-3-yl)pyrrolidin-3-yl)-4-methyl-N-(3-(trifluoromethyl)phenyl)benzamide] | < 10 nM | 10 to 25 nM
COCCn1cc(Nc2ccc(N3CC[C@@H](c4cc(C(=O)Nc5cccc(C(F)(F)F)c5)ccc4C)C3)cn2)cn1 [Example 47, (S)-3-(1-(6-((1-(2-methoxyethyl)-1H-pyrazol-4-yl)amino)pyridin-3-yl)pyrrolidin-3-yl)-4-methyl-N-(3-(trifluoromethyl)phenyl)benzamide] | 10 to 25 nM | 25 to 60 nM

Reference: US20240425482A1, “PYRROLIDINE DERIVATIVES AS DDRS INHIBITORS” (CHIESI FARMACEUTICI S.P.A., priority 2021, published 2024)
